Test results: US20240400553A1, “AMINE BASED MATRIPTASE 2 INHIBITORS AND USES THEREOF” (Disc Medicine, Inc., priority 2023, published 2024)

Molecular target: T1, Human Recombinant Matriptase 2 (Homo sapiens, UniProt Q8IU80)
T1 construct: made in house
T1 sequence (Q8IU80 1-811): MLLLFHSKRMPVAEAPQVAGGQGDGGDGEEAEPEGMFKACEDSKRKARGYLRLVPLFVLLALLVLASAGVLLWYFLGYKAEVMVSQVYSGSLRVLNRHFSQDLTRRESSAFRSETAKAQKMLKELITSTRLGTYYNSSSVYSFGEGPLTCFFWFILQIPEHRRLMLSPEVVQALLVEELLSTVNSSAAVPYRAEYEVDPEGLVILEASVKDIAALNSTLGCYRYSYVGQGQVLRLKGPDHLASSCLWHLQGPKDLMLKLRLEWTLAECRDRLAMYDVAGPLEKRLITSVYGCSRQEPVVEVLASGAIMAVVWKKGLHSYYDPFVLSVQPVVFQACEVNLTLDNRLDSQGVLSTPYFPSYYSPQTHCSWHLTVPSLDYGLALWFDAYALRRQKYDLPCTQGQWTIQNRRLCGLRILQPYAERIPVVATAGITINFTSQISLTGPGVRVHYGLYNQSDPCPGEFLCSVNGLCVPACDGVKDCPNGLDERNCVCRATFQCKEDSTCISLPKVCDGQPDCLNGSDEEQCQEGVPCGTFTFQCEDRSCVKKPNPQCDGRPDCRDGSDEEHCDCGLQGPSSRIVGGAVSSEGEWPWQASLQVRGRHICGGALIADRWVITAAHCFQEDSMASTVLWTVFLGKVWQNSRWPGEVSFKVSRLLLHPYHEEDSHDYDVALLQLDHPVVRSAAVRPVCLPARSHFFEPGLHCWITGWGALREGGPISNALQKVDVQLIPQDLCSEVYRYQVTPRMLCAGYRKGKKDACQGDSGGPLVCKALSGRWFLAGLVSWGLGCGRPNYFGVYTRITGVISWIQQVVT
Test: Matriptase 2 inhibition, fluorescence based assay (Method I)
Assay type: biochemical
Conditions: Table A; Ki of Matriptase-2, class symbols; read-out: Mat-2 Ki
Procedure: • Method I: Test compounds were evaluated for their potential to inhibit Human Recombinant Matriptase 2 (in-house) using fluorescence based assay. The concentration of Recombinant Matriptase 2 and the substrate used in the assay was: 3.5 nM (In-house Matriptase 2) and 62 μM (Boc-Gln-Ala-Arg-7-amido-4-methyl coumarin hydrobromide −Cat log: I-1550 from Bachem) respectively. The assay buffer used was 50 mM TRIS pH 7.5, 150 mM NaCl, 0.01% Gelatin TCL059 Himedia). The assay was performed using 384 well black flat bottom plate from grenier (Cat log: 781076) at 25° C. The enzyme and compound were preincubated for 30 mins, the plate was read at 60 mins after substrate addition at wavelength Ex: 360/Em: 480 nm. The final assay volume was 20 μl. A stock solution of compounds was initially prepared in DMSO and appropriate dilutions were made and IC50 was determined for all the compounds (final DMSO conc in the assay was 1%). All the measurements were carried out using the Spectramax M5, Molecular devices.
To determine Ki values, dose response curves were generated by plotting percentage inhibition as a function of inhibitor concentration and the data was fitted to sigmoidal non-linear regression equation (variable slope) using Graph Pad prism software V8.

**Q.** How did the Ki turn out when `NCc1ccc2cc(-c3nnn[nH]3)n(Cc3cc(NS(=O)(=O)CC[C@@H]4CCCN4)cc4ccccc34)c2c1` [Compound 399, (S)—N-(4-((6-(aminomethyl)-2-(1H-tetrazol-5-yl)-1H-indol-1-yl)methyl)naphthalen-2-yl)-2-(pyrrolidin-2-yl) ethane-1-sulfonamide] was run?
**A.** 0.1 to 0.5 µM

Same assay, conditions: Table A; Ki of Matriptase-2; read-out: Mat-2 Ki

**Q.** `Cc1cccc(C)c1CS(=O)(=O)Nc1cc(Cn2c(C(=O)O)cc3ccc(CN)nc32)c2ccccc2c1` [Compound 195, 6-(aminomethyl)-1-({3-[(2,6-dimethylphenyl)-methanesulfonamido]-naphthalen-1-yl}methyl)-1H-pyrrolo[2,3-b]pyr-idine-2-carboxylic acid] was tested. Which Ki did it give?
**A.** ≤ 0.1 µM

**Q.** `NCc1ccc2cc(C(=O)OCC3(CN)CC3)n(Cc3cc(NS(=O)(=O)Cc4ccccc4)cc4ccccc34)c2n1` [Compound 55, [1-(aminomethyl)cyclo-propyl]methyl 6-(amino-methyl)-1-{[3-(phenyl-methanesulfonamido)-naphthalen-1-yl]methyl}-1H-pyrrolo[2,3-b]pyr-idine-2-carboxylate] was tested. Which Ki did it give?
**A.** ≤ 0.1 µM

**Q.** For `CN1CCC(COC(=O)c2cc3ccc(CN)nc3n2Cc2cc(NS(=O)(=O)Cc3ccccc3)cc3ccccc23)CC1` [Compound 17, (1-methylpiperidin-4-yl)methyl 6-(amino-methyl)-1-{[3-(phenyl-methanesulfonamido)-naphthalen-1-yl]methyl}-1H-pyrrolo[2,3-b]pyr-idine-2-carboxylate], which Ki is on record?
**A.** ≤ 0.1 µM

**Q.** For `CN1CCC(CCOC(=O)c2cc3ccc(CN)nc3n2Cc2cc(NS(=O)(=O)Cc3ccsc3)cc3ccccc23)CC1` [Compound 174], which Ki is on record?
**A.** ≤ 0.1 µM

**Q.** Which Ki does the source give for `CNCCOC(=O)c1cc2ccc(CN)nc2n1Cc1cc(NS(=O)(=O)Cc2cccs2)cc2ccccc12` [Compound 152, 2-(methylamino)ethyl 6-(aminomethyl)-1-({3-[(thiophen-2-yl)methane-sulfonamido]naphthalen-1-yl}methyl)-1H-pyr-rolo[2,3-b]pyridine-2-carboxylate] here?
**A.** ≤ 0.1 µM

**Q.** How did the Ki turn out when `Cc1oc(=O)oc1COC(=O)c1cc2ccc(CN)nc2n1Cc1cc(NS(=O)(=O)Cc2ccsc2)cc2ccccc12` [Compound 178, (5-methyl-2-oxo-2H-1,3-dioxol-4-yl)methyl 6-(aminomethyl)-1-({3-[(thiophen-3-yl)methane-sulfonamido]naphthalen-1-yl}methyl)-1H-pyr-rolo[2,3-b]pyridine-2-carboxylate] was run?
**A.** 0.1 to 0.5 µM

**Q.** With `CN(c1cc(Cn2c(C(=O)O)cc3ccc(CN)nc32)c2ccccc2c1)S(=O)(=O)Cc1ccccc1` [Compound 109, 6-(aminomethyl)-1-{[3-(N-methylphenylmeth-anesulfonamido)naph-thalen-1-yl]methyl}-1H-pyrrolo[2,3-b]pyridine-2-carboxylic acid] as the compound, how does the Ki read?
**A.** 0.1 to 0.5 µM

**Q.** For `CN1CCC(C)(COC(=O)c2cc3ccc(CN)nc3n2Cc2cc(NS(=O)(=O)Cc3ccccc3)cc3ccccc23)CC1` [Compound 10, (1,4-dimethylpiperidin-4-yl)methyl 6-(amino-methyl)-1-{[3-(phenyl-methanesulfonamido)-naphthalen-1-yl]meth-yl}-1H-pyrrolo[2,3-b]-pyridine-2-carboxylate], which Ki is on record?
**A.** ≤ 0.1 µM

**Q.** `NCc1ccc2cc(C(=O)OCCn3ccnc3)n(Cc3cc(NS(=O)(=O)Cc4ccccc4)cc4ccccc34)c2n1` [Compound 93, 2-(1H-imidazol-1-yl)-ethyl 6-(aminomethyl)-1-{[3-(phenylmethanesul-fonamido)naphthalen-1-yl]methyl}-1H-pyrrolo-[2,3-b]pyridine-2-car-boxylate] was tested. Which Ki did it give?
**A.** 0.1 to 0.5 µM

**Q.** `CN(C)CCNC(=O)c1cc2ccc(CN)nc2n1Cc1cc(NS(=O)(=O)Cc2ccccc2)cc2ccccc12` [Compound 71, 6-(aminomethyl)-N-[2-(dimethylamino)ethyl]-1-{[3-(phenylmethane-sulfonamido)naphthalen-1-yl]methyl}-1H-pyr-rolo[2,3-b]pyridine-2-carboxamide] was tested. Which Ki did it give?
**A.** ≤ 0.1 µM

**Q.** `NCc1ccc2cc(C(=O)OCCN3CCCCC3)n(Cc3cc(NS(=O)(=O)Cc4ccccc4)cc4ccccc34)c2n1` [Compound 65, 2-(piperidin-1-yl)ethyl 6-(aminomethyl)-1-{[3-(phenylmethanesulfon-amido)naphthalen-1-yl]-methyl}-1H-pyrrolo[2,3-b]pyridine-2-carboxylate] was tested. Which Ki did it give?
**A.** ≤ 0.1 µM

Same assay, conditions: Table A; Ki of Matriptase-2 given as class symbols; read-out: Mat-2 Ki

**Q.** Which Ki does the source give for `CN(C)CCCCS(=O)(=O)Nc1cc(Cn2c(C(=O)O)cc3ccc(CN)nc32)c2ccccc2c1` [Compound 219, 6-(aminomethyl)-1-({3-[4-(dimethylamino)-butanesulfonamido]naph-thalen-1-yl}methyl)-1H-pyrrolo[2,3-b]pyridine-2-carboxylic acid] here?
**A.** 0.1 to 0.5 µM

**Q.** `CN1CCC(Cc2nnc(-c3cc4ccc(CN)nc4n3Cc3cc(NS(=O)(=O)Cc4ccccc4)cc4ccccc34)o2)CC1` [Compound 346, N-(4-{[6-(aminomethyl)-2-{5-[(1-methylpiperidin-4-yl)methyl]-1,3,4-oxa-diazol-2-yl}-1H-pyrrolo-[2,3-b]pyridin-1-yl]meth-yl}naphthalen-2-yl)-1-phenylmethanesulfon-amide] was tested. Which Ki did it give?
**A.** 0.1 to 0.5 µM

**Q.** Which Ki does the source give for `CN1CCC(COC(=O)c2cc3ccc(CN)nc3n2Cc2cc(NS(=O)(=O)Cc3ccoc3)cc3ccccc23)CC1` [Compound 207, (1-methylpiperidin-4-yl)-methyl 6-(aminomethyl)-1-({3-[(furan-3-yl)meth-anesulfonamido]naph-thalen-1-yl}methyl)-1H-pyrrolo[2,3-b]pyridine-2-carboxylate] here?
**A.** ≤ 0.1 µM

**Q.** How did the Ki turn out when `CC(C)(C)S(=O)(=O)N1CCC(CNC(=O)Nc2cc(Cn3c(C(=O)O)cc4ccc(CN)cc43)c3ccccc3c2)CC1` [Compound 396, 6-(aminomethyl)-1-({3-[({[1-(2-methylpropane-2-sulfonyl)piperidin-4-yl]methyl}carbamoyl)-amino]naphthalen-1-yl}-methyl)-1H-indole-2-carboxylic acid] was run?
**A.** 0.1 to 0.5 µM

**Q.** With `CN1CCC(COC(=O)c2cc3ccc(CN)nc3n2Cc2cc(N[S@@+]([O-])Cc3ccccc3)cc3ccccc23)CC1` (racemic) [Compound 367] as the compound, how does the Ki read?
**A.** 0.5 to 3 µM

**Q.** How did the Ki turn out when `CC(C)(C)OC(=O)N1CC[C@H](S(=O)(=O)Nc2cc(Cn3c(C(=O)O)cc4ccc(CN)nc43)c3ccccc3c2)C1` [Compound 268] was run?
**A.** 0.1 to 0.5 µM

**Q.** With `CC(C)(C)S(=O)(=O)N1CCC(CS(=O)(=O)Nc2cc(Cn3c(C(=O)O)cc4ccc(CN)nc43)c3ccccc3c2)CC1` [Compound 267, 6-(aminomethyl)-1-[(3-{[1-(2-methylpropane-2-sulfonyl)piperidin-4-yl]-methanesulfonamido}-naphthalen-1-yl)methyl]-1H-pyrrolo[2,3-b]pyr-idine-2-carboxylic acid] as the compound, how does the Ki read?
**A.** 0.1 to 0.5 µM

**Q.** Which Ki does the source give for `CN1CCC(CS(=O)(=O)Nc2cc(Cn3c(C(=O)O)cc4ccc(CN)nc43)c3ccccc3c2)CC1` [Compound 237, 6-(aminomethyl)-1-({3-[(1-methylpiperidin-4-yl)methanesulfonamido]-naphthalen-1-yl}methyl)-1H-pyrrolo[2,3-b]pyr-idine-2-carboxylic acid] here?
**A.** 0.1 to 0.5 µM

**Q.** With `NCc1ccc2cc(C(=O)O)n(Cc3cc(NS(=O)(=O)[C@H]4CCOC4)cc4ccccc34)c2n1` (racemic) [Compound 273, rac-6-(aminomethyl)-1-({3-[(3R)-oxolane-3-sulfonamido]naphthalen-1-yl}methyl)-1H-pyr-rolo[2,3-b]pyridine-2-carboxylic acid] as the compound, how does the Ki read?
**A.** 0.5 to 3 µM

Same assay, conditions: Table B; Human Recombinant Matriptase 2, 3.5 nM enzyme, 62 μM substrate, 30 mins preincubation; read-out: Mean Ki

**Q.** Which Ki does the source give for `CN1CCC(CCOC(=O)c2cc3ccc(CN)nc3n2Cc2cc(NS(=O)(=O)Cc3ccccc3)cc3ccccc23)CC1=O` (centres unmarked) [Compound 2.3] here?
**A.** ≤ 0.1 µM

**Q.** How did the Ki turn out when `Cc1cccc(C)c1CS(=O)(=O)Nc1cc2c(c(Cn3c(C(=O)OCc4nccn4C)cc4ccc(CN)nc43)c1)CCCC2` [Compound 2.44] was run?
**A.** 0.1 to 0.5 µM
